{"source": "patent US11466008B2", "about": "“Co-crystals of neflamapimod (VX-745)” (EIP Pharma, LLC, priority 2017, dated 2022)", "key": {"[1]": {"assay": "Dissolution study in water at ambient temperature (HPLC)", "assay_type": "physicochemical", "procedure": "HPLC analyses were carried out on an Agilent 1100 series instrument equipped with a UV detector using the following materials and operating parameters:\nDissolution studies were carried out for VX-745 at ambient temperature using water, as described by the HPLC Analysis protocol described above.\nDissolution studies were carried out for the CC-6 at ambient temperature using water, as described by the HPLC Analysis protocol described above.\nDissolution studies were carried out for the CC-11 at ambient temperature using water, as described by the HPLC Analysis protocol described above."}, "[2]": {"assay": "Dissolution study in FaSSIF at ambient temperature (HPLC; XRPD of remaining solids)", "conditions": "for ending solubility / peak solubility: medium: FaSSIF; for ending solubility / peak solubility / Concentration: ambient temperature; for Concentration: FaSSIF, 3 hrs", "excerpt": "(§1) The first dissolution medium tested was fasted state simulated intestinal fluid (FaSSIF) at ambient temperature. […] The second dissolution medium tested was fed state simulated intestinal fluid (FeSSIF) at ambient temperature.\n(§2) Upon the completion of each experiment, the remaining solid was recovered and analyzed by XRPD.\n(§3) High-Performance Liquid Chromatography (HPLC) Analyses."}, "[3]": {"assay": "Dissolution study in FeSSIF at ambient temperature (HPLC; XRPD of remaining solids)", "conditions": "for Concentration: FeSSIF; for Concentration / ending solubility / peak solubility: ambient temperature; for ending solubility / peak solubility: medium: FeSSIF", "excerpt": "as §1, §2, §3"}, "[4]": {"assay": "Estimated solubility of VX-745 in solvents (solvent aliquot addition, visual inspection)", "assay_type": "physicochemical", "conditions": "thermodynamic from solid", "procedure": "Solubilities of VX-745 in several solvents were estimated. The experiments were carried out by adding test solvents in aliquots to weighed portions of solid. Whether dissolution had occurred was judged by visual inspection after addition of each solvent aliquot. Solubility numbers were calculated by dividing the total amount of solvent used to dissolve the sample by the weight of the sample. The actual solubilities may be greater than the numbers calculated because of the use of solvent aliquots that were too large or because of slow dissolution rates. […] The solubility number is expressed as “greater than or equal to” if dissolution occurred on addition of the first solvent aliquot."}, "[5]": {"conditions": "FaSSIF (fasted state simulated intestinal fluid), fassif, thermodynamic from solid"}, "[6]": {"conditions": "FeSSIF (fed state simulated intestinal fluid), fessif, thermodynamic from solid"}}}
{"smiles": "O=C(O)CCCC(=O)O.O=c1ncn2nc(Sc3ccc(F)cc3F)ccc2c1-c1c(Cl)cccc1Cl", "note": "[CC-6]", "values": [{"measurement": "Solubility", "setting": "[1]; 2 mins", "value": 23.78, "unit": "µg/mL"}, {"measurement": "Solubility", "setting": "[1]; 5 mins", "value": 39.17, "unit": "µg/mL"}, {"measurement": "Solubility", "setting": "[1]; 10 mins", "value": 51.39, "unit": "µg/mL"}, {"measurement": "Solubility", "setting": "[1]; 15 mins", "value": 67.49, "unit": "µg/mL"}, {"measurement": "Solubility", "setting": "[1]; 25 mins", "value": 68.93, "unit": "µg/mL"}, {"measurement": "Solubility", "setting": "[1]; 40 mins", "value": 65.28, "unit": "µg/mL"}, {"measurement": "Solubility", "setting": "[1]; 1 hr", "value": 59.85, "unit": "µg/mL"}, {"measurement": "Solubility", "setting": "[1]; 2 hrs", "value": 54.11, "unit": "µg/mL"}, {"measurement": "Solubility", "setting": "[1]; 3 hrs", "value": 50.75, "unit": "µg/mL"}, {"measurement": "Solubility", "setting": "[1]; 4 hrs", "value": 57.07, "unit": "µg/mL"}, {"measurement": "ending solubility", "setting": "[2]", "value": 1.59, "unit": "µg/mL"}, {"measurement": "peak solubility", "setting": "[2]", "value": 3.75, "unit": "µg/mL"}, {"measurement": "Concentration", "setting": "[3]; 3 mins", "value": 1280, "unit": "ng/mL"}, {"measurement": "ending solubility", "setting": "[3]", "value": 2.38, "unit": "µg/mL"}, {"measurement": "peak solubility", "setting": "[3]", "value": 1.87, "unit": "µg/mL"}]}
{"smiles": "O=c1ncn2nc(Sc3ccc(F)cc3F)ccc2c1-c1c(Cl)cccc1Cl.Oc1ccccc1", "note": "[CC-11]", "values": [{"measurement": "Solubility", "setting": "[1]; 2 mins", "value": 10.19, "unit": "µg/mL"}, {"measurement": "Solubility", "setting": "[1]; 5 mins", "value": 57.50, "unit": "µg/mL"}, {"measurement": "Solubility", "setting": "[1]; 10 mins", "value": 43.26, "unit": "µg/mL"}, {"measurement": "Solubility", "setting": "[1]; 15 mins", "value": 36.28, "unit": "µg/mL"}, {"measurement": "Solubility", "setting": "[1]; 25 mins", "value": 35.33, "unit": "µg/mL"}, {"measurement": "Solubility", "setting": "[1]; 40 mins", "value": 21.33, "unit": "µg/mL"}, {"measurement": "Solubility", "setting": "[1]; 1 hr", "value": 15.09, "unit": "µg/mL"}, {"measurement": "Solubility", "setting": "[1]; 2 hrs", "value": 17.11, "unit": "µg/mL"}, {"measurement": "Solubility", "setting": "[1]; 3 hrs", "value": 12.30, "unit": "µg/mL"}, {"measurement": "Solubility", "setting": "[1]; 4 hrs", "value": 13.98, "unit": "µg/mL"}]}
{"smiles": "O=c1ncn2nc(Sc3ccc(F)cc3F)ccc2c1-c1c(Cl)cccc1Cl.[Cl][Zn][Cl]", "note": "[CC-18]", "values": [{"measurement": "Concentration", "setting": "[2]", "value": 23630, "unit": "ng/mL"}, {"measurement": "ending solubility", "setting": "[2]", "value": 22.57, "unit": "µg/mL"}, {"measurement": "peak solubility", "setting": "[2]", "value": 34.49, "unit": "µg/mL"}, {"measurement": "Concentration", "setting": "[3]; 2 mins (Table 17)", "value": 88500, "unit": "ng/mL"}, {"measurement": "Concentration", "setting": "[3]; 5 mins (Table 17)", "value": 68530, "unit": "ng/mL"}, {"measurement": "Concentration", "setting": "[3]; 10 mins (Table 17)", "value": 56840, "unit": "ng/mL"}, {"measurement": "Concentration", "setting": "[3]; 15 mins (Table 17)", "value": 59400, "unit": "ng/mL"}, {"measurement": "Concentration", "setting": "[3]; 25 mins (Table 17)", "value": 47550, "unit": "ng/mL"}, {"measurement": "Concentration", "setting": "[3]; 40 mins (Table 17)", "value": 50990, "unit": "ng/mL"}, {"measurement": "Concentration", "setting": "[3]; 1 hr (Table 17)", "value": 47830, "unit": "ng/mL"}, {"measurement": "Concentration", "setting": "[3]; 2 hrs (Table 17)", "value": 50170, "unit": "ng/mL"}, {"measurement": "Concentration", "setting": "[3]; 3 hrs (Table 17)", "value": 47340, "unit": "ng/mL"}, {"measurement": "Concentration", "setting": "[3]; 4 hrs (Table 17)", "value": 49240, "unit": "ng/mL"}, {"measurement": "Concentration", "setting": "[3]; 24 hrs (Table 17)", "value": 34180, "unit": "ng/mL"}, {"measurement": "ending solubility", "setting": "[3]", "value": 34.18, "unit": "µg/mL"}, {"measurement": "peak solubility", "setting": "[3]", "value": 88.50, "unit": "µg/mL"}]}
{"smiles": "O=c1ncn2nc(Sc3ccc(F)cc3F)ccc2c1-c1c(Cl)cccc1Cl", "note": "[VX-745, 5-(2,6-dichlorophenyl)-2-(2,4-difluorophenylthio)-6H-pyrimido[1,6-b]pyridazin-6-one]", "values": [{"measurement": "Solubility", "setting": "[4]; organic solvent or mixture, solvent acetone", "value": 7000, "unit": "µg/mL"}, {"measurement": "Solubility", "setting": "[4]; organic solvent or mixture, solvent acetonitrile", "value": 9000, "unit": "µg/mL"}, {"measurement": "Solubility", "setting": "[4]; organic solvent or mixture, solvent ethanol", "value": 2000, "unit": "µg/mL"}, {"measurement": "Solubility", "setting": "[4]; organic solvent or mixture, solvent ethyl acetate", "value": "< 1000", "unit": "µg/mL"}, {"measurement": "Solubility", "setting": "[4]; organic solvent or mixture, solvent isopropyl alcohol", "value": 1000, "unit": "µg/mL"}, {"measurement": "Solubility", "setting": "[4]; organic solvent or mixture, solvent methanol", "value": 10000, "unit": "µg/mL"}, {"measurement": "Solubility", "setting": "[4]; organic solvent or mixture, solvent tetrahydrofuran (THF)", "value": 4000, "unit": "µg/mL"}, {"measurement": "Solubility", "setting": "[4]; solvent water", "value": "< 1000", "unit": "µg/mL"}, {"measurement": "solubility at 2 min", "setting": "[1]; thermodynamic from solid, 2 mins", "value": 11.3, "unit": "µg/mL"}, {"measurement": "solubility at 5 min", "setting": "[1]; thermodynamic from solid, 5 mins", "value": 15.7, "unit": "µg/mL"}, {"measurement": "solubility at 10 min", "setting": "[1]; thermodynamic from solid, 10 mins", "value": 14.9, "unit": "µg/mL"}, {"measurement": "solubility at 15 min", "setting": "[1]; thermodynamic from solid, 15 mins", "value": 17.8, "unit": "µg/mL"}, {"measurement": "solubility at 25 min", "setting": "[1]; thermodynamic from solid, 25 mins", "value": 15.5, "unit": "µg/mL"}, {"measurement": "solubility at 40 min", "setting": "[1]; thermodynamic from solid, 40 mins", "value": 10.7, "unit": "µg/mL"}, {"measurement": "solubility at 1 h", "setting": "[1]; thermodynamic from solid, 1 hr", "value": 6.59, "unit": "µg/mL"}, {"measurement": "solubility at 2 h", "setting": "[1]; thermodynamic from solid, 2 hrs", "value": 5.67, "unit": "µg/mL"}, {"measurement": "solubility at 3 h", "setting": "[1]; thermodynamic from solid, 3 hrs", "value": 6.32, "unit": "µg/mL"}, {"measurement": "solubility at 4 h", "setting": "[1]; thermodynamic from solid, 4 hrs", "value": 11.3, "unit": "µg/mL"}, {"measurement": "solubility at 5 min", "setting": "[2]; [5]", "value": 17.8, "unit": "µg/mL"}, {"measurement": "solubility at 24 h", "setting": "[2]; [5]", "value": 9.07, "unit": "µg/mL"}, {"measurement": "Concentration", "setting": "[2]", "value": 5810, "unit": "ng/mL"}, {"measurement": "solubility at 3 h", "setting": "[3]; [6]", "value": 21.4, "unit": "µg/mL"}, {"measurement": "solubility at 24 h", "setting": "[3]; [6]", "value": 14, "unit": "µg/mL"}, {"measurement": "Concentration", "setting": "[3]; 3 hrs", "value": 21350, "unit": "ng/mL"}]}
